Experimental data as given in US20090247542A1, “SYNTHESES AND PREPARATIONS OF POLYMORPHS OF CRYSTALLINE ARIPIPRAZOLE” (MEDICHEM, S.A., priority 2005, published 2009).

Assay: Hygroscopicity measurements (water content by Karl Fisher after humid storage)
Format: physicochemical
Conditions: for Hygroscopicity: water content (Karl Fisher) after 24 hours at 60° C./100% RH, then 24 hours at room temperature and about 30% RH
Description: vii. Hygroscopicity Measurements
One gram of the sample was accurately weighed in a weighing bottle (diameter 5 cm), covered with kimwipes and left to rest in 60° C./100% RH environment (water/dessicator). 24 hours later, the weighing bottle was removed, transferred to an environment of room temperature and about 30% RH (magnesium chloride hexahydrate saturated water solution/dessicator) and left to rest for 24 hours and the water content of the sample was measured by the Karl Fisher method.

| Structure (SMILES) | Hygroscopicity | low hygroscopicity (moisture content) (after storing anhydrous aripiprazole Form J for 24 hours at 60° C. and a humidity level of 100%) |
| --- | --- | --- |
| O=C1CCc2ccc(OCCCCN3CCN(c4cccc(Cl)c4Cl)CC3)cc2N1 [Reference Example 2, 7-{4-[4-(2,3-dichlorophenyl)-1-piperazinyl]-butoxy}-3,4-dihydrocarbostyril, reference compound] | 0.35% | – |
| O=C1CCc2ccc(OCCCCN3CCN(c4cccc(Cl)c4Cl)CC3)cc2N1 [aripiprazole Form J, 7-{4-[4-(2,3-dichlorophenyl)-1-piperazinyl]-butoxy}-3,4-dihydrocarbostyril] | – | ≤ 0.5% |
| O=C1CCc2ccc(OCCCCN3CCN(c4cccc(Cl)c4Cl)CC3)cc2N1 [Example 1, 7-{4-[4-(2,3-dichlorophenyl)-1-piperazinyl]-butoxy}-3,4-dihydrocarbostyril] | 0.06% | – |
